Assay results reported in US4122204A, “N-(4-tert-butylphenylthiosulfenyl)-N-alkyl aryl carbamate compounds” (priority 1976, dated 1978).
≈ marks a conversion by molar mass, not a printed value. Where two headings read alike, the source gives them in different places.

Key:
[1] = tested on: bean aphid (Aphis fabae Scop.); assay: Bean Aphid Foliage Spray Test; assay type: in vivo; conditions: for LC50: Aphis fabae, foliar, read-out: Aphid LD50
Experimental: (§1) Suspensions of the test compounds were prepared by dissolving one gram of compound in 50 milliliters of acetone in which had been dissolved 0.1 gram (10 percent of the weight of compound) of an alkylphenoxy polyethoxyethanol surfactant, as an emulsifying or dispersing agent. The resulting solution was mixed into 150 milliliters of water to give roughly 200 milliliters of a suspension containing the compound in finely divided form. The thus-prepared stock suspension contained 0.5 percent by weight of test compound. The test concentration in parts per million by weight employed in the tests described hereinbelow were obtained by appropriate dilutions of the stock suspension with water. The test procedures were as follows:
Adults and nymphal stages of the bean aphid (Aphis fabae Scop.) reared on potted dwarf nasturtium plants at 65°-70° F. and 50-70 percent relative humidity, constituted the test insects. For testing purposes, the number of aphids per pot was standardized to 100-150 by trimming plants containing excess aphids.
The test compounds were formulated by diluting the stock suspension with water to give a suspension containing 500 parts of test compound per million parts of final formulation.
The potted plants (one pot per compound tested) infested with 100-150 aphids, were placed on a revolving turntable and sprayed with 100-110 milliliters of test compound formulation by use of a DeVilbiss spray gun set at 40 psig. air pressure. This application, which lasted 25 seconds, was sufficient to wet the plants to run-off. As a control, 100-110 milliliters of a water-acetone-emulsifier solution containing no test compound were also sprayed on infested plants. After spraying, the pots were placed on their sides on a sheet of white standard mimeograph paper which had been previously ruled to facilitate counting. Temperature and humidity in the test room during the 24 hour holding period were 65°-70° F. and 50-70 percent, respectively. Aphids which fell onto the paper and were unable to remain standing after being uprighted were considered dead. Aphids remaining on the plants were observed closely for movement and those which were unable to move the length of the body upon stimulation by prodding were considered dead. Percent mortality was recorded for various concentration levels.

[2] = tested on: two-spotted mite (Tetranychus urticae Koch); assay: Mite Foliage Spray Test; assay type: in vivo; conditions: foliar, 144 h, read-out: Mite LD50
Experimental: as §1
Adults and numphal stages of the two-spotted mite (Tetranychus urticae Koch), reared on Tendergreen bean plants at 80±5 percent relative humidity, were the test organisms. Infested leaves from a stock culture were placed on the primary leaves of two bean plants six to eight inches in height, growing in a two-and-a-half inch clay pot. 150-200 Mites, a sufficient number for testing, transferred from the excised leaves to the fresh plants in a period of twenty four hours. Following the twenty four hour transfer period, the excised leaves were removed from the infested plants. The test compounds were formulated by diluting the stock suspension with water to give a suspension containing 500 parts of test compound per million parts of final formulation. The potted plants (one pot per compound) were placed on a revolving turntable and sprayed with 100-110 milliliters of test compound formulation by use of a DeVilbiss spray gun set at 40 psig. air pressure. This application, which lasted 25 seconds, was sufficient to wet the plants to run-off. As a control, 100-110 milliliters of a water solution containing acetone and emulsifier in the same concentrations as the test compound formulation, but containing no test compound, were also sprayed on infested plants. The sprayed plants were held at 80±5 percent relative humidity for six days, after which a mortality countr of motile forms was made. Microscopic examination for motile forms was made on the leaves of the test plants. Any individual which was capable of locomotion upon prodding was considered living.

[3] = tested on: southern armyworm (Prodenia eridania, (Cram.)); assay: Southern Armyworm Leaf Spray Test; assay type: in vivo; conditions: for LC50: Spodoptera eridania, 72 h, read-out: Southern Armyworm LD50
Experimental: as §1
Larvae of the southern armyworm (Prodenia eridania, (Cram.)), reared on Tendergreen bean plants at a temperature of 80°±5° F. and a relative humidity of 50±5 percent, constituted the test insects.
The test compounds were formulated by diluting the stock suspension with water to give a suspension containing 500 parts of test compound per million parts of final formulation. Potted Tendergreen bean plants of standard height and age were placed on a revolving turntable and sprayed with 100-110 milliliters of test compound formulation by use of a DeVilbiss spray gun set at 10 psig air pressure. This application, which lasted 25 seconds, was sufficient to wet plants to run-off. As a control, 100-110 milliliters of a water-acetone-emulsifier solution containing no test compound were also sprayed on infested plants. When dry, the paired leaves were separated and each one was placed in a 9 centimeter Petri dish lined with moistened filter paper. Five randomly selected larvae were introduced into each dish and the dishes were closed. The closed dishes were labeled and held at 80-85° F. for three days. Although the larvae could easily consume the whole leaf within twenty-four hours, no more food was added. Larvae which were unable to move the length of the body, even upon stimulation by prodding, were considered dead. Percent mortality was recorded for various concentration levels.

[4] = tested on: Mexican bean beetle (Epilachna varivestis, Muls.); assay: Mexican Bean Beetle Leaf Spray Test; assay type: in vivo; conditions: for LC50: Epilachna varivestis, 72 h, read-out: Mexican Bean Beetle LD50
Experimental: as §1
Fourth instar larvae of the Mexican bean beetle (Epilachna varivestis, Muls.), reared on Tendergreen bean plants at a temperature of 80°±5° F. and 50±5 percent relative humidity, were the test insects.
The test compounds were formulated by diluting the stock suspension with water to give a suspension containing 500 parts of test compound per million parts of final formulation. Potted Tendergreen bean plants of standard height and age were placed on a revolving turntable and sprayed with 100-110 milliliters of test compound formulation by use of a DeVilbiss spray gun set at 10 psig air pressure. This application, which lasted 25 seconds, was sufficient to wet plants to run-off. As a control, 100-110 milliliters of a water-acetone-emulsifier solution containing no test compound were also sprayed on infested plants. When dry, the paired leaves were separated and each was placed in a 9 centimeter Petri dish lined with moistened filter paper. Five randomly selected larvae were introduced into each dish, and the dishes were closed. The closed dishes were labeled and held at a temperature of 80°±5° F. for three days. Although the larvae could easily consume the leaf within 24 to 48 hours, no more food was added. Larvae which were unable to move the length of the body, even upon stimulation, were considered dead.

[5] = tested on: house flies (Musca domestica, L.); assay: Fly Bait Test; assay type: in vivo; conditions: 24 h, read-out: House Fly LD50
Experimental: as §1
Four to six day old adult house flies (Musca domestica, L.), reared according to the specifications of the Chemical Specialities Manufacturing Association (Blue Book, McNair-Dorland Co., N.Y. 1954; pages 243-244, 261) under controlled conditions of 80°±5° F. and 50±5 percent relative humidity, were the test insects. The flies were immobilized by anesthetizing with carbon dioxide and twenty five immobilized individuals, males and females, were transferred to a cage consisting of a standard food strainer about five inches in diameter which was inverted over a wrapping-papercovered surface. The test compounds were formulated by diluting the stock suspension with a 10 percent (by weight) sugar solution to give a suspension containing 500 parts of test compound per million parts of final formulation, by weight. Ten milliliters of the test formulation were added to a souffle cup containing a one-inch square of an absorbent cotton pad. This bait cup was introduced and centered on the blotting paper under the food strainer prior to admitting the anesthetized flies. The caged flies were allowed to feed on the bait for twenty four hours, at a temperature of 80°±5° F. and the relative humidity of 50±5 percent.

in vivo = conditions: rat, in vivo, po
Experimental: (§2) These compounds were also evaluated to determine their peroral toxicity to mammals by conventional methods. The animal selected for this experiment was the rat.
(§3) The toxicity is reported in […] required for a 50% kill (LD50).

mites and insects = assay: Pesticidal activity against mites and insects (general statement); conditions: in vivo
Experimental: Selected species of the new compounds were evaluated in comparison with known similar prior art compounds to determine their pesticidal activity against mites and certain insects, including an aphid, a caterpillar, a beetle and a fly. The new compounds were further evaluated for mammalian toxicity.

rat = assay: in vivo; conditions: for mammalian toxicity (in words): rat, in vivo
Experimental: as §2, §3

important economic crops = assay: Phytotoxicity against important economic crops
[6] = LD50 value (mammalian toxicity), peroral, unit inferred
[7] = Rat LD50, peroral, dose for mortality rate of 50 percent
[8] = foliage spray, ppm required for 50% kill, 24 hour holding period
[9] = foliage spray, ppm required for 50% kill, six days
[10] = leaf spray, ppm required for 50% kill, three days
[11] = bait test, ppm required for 50% kill, twenty four hours

Work on `Cc1ccc(SSN(C)C(=O)Oc2cccc3c2OC(C)(C)C3)cc1` [Compound 2, 2,2-Dimethyl-2,3-dihydro-7-[N-methyl-N-(4-methylphenyl-thiosulfenyl)carbamoyloxy]benzofuran] yielded an LC50 ([1]; 24 h) of 1.4 µg/mL (≈ 3.73 µM), an LC50 [2] of 130 µg/mL (≈ 346 µM) and an LC50 [3] of about 25 µg/mL (≈ 66.6 µM). The LC50 [4] was 4 µg/mL (≈ 10.7 µM), the LC50 [5] was 21 µg/mL (≈ 55.9 µM) and the LD50 (in vivo; [6]) was 20 mg/kg. For the same compound, the LD50 (in vivo; [7]) was 20 mg/kg and the “pesticidal activity against mites and insects (in words)” value (mites and insects) was “levels generally comparable to those of the parent compounds”.

With `CNC(=O)Oc1cccc2c1OC(C)(C)C2` [Compound 1, 2,2-Dimethyl-2,3-dihydro-7-(N-methylcarbamoyloxy)benzofuran] the LC50 [1, 8] was 2 µg/mL (≈ 9.04 µM), the LC50 [2, 9] was 175 µg/mL (≈ 791 µM) and the LC50 [3, 10] was 90 µg/mL (≈ 407 µM). For the same compound, the LC50 [4, 10] was 12 µg/mL (≈ 54.2 µM), the LC50 [5, 11] was 12 µg/mL (≈ 54.2 µM) and the LD50 (in vivo; [6]) was 8 to 14 mg/kg. For the same compound, the LD50 (in vivo; [7]) was 8 to 14 mg/kg and the “mammalian toxicity (in words)” value (rat) was “unacceptable levels of mammaliam toxicity”.

`CC(C)Oc1ccccc1OC(=O)N(C)SSc1ccc(C(C)(C)C)cc1` [Compound 4, 2-Isopropoxy-[N-methyl-N-(4-tert-butylphenylthiosulfenyl)carbamoyloxy]benzene] showed an LC50 ([1]; 24 h) of 22 µg/mL (≈ 54.2 µM), an LC50 [2] of over 500 µg/mL and an LC50 [3] of 250 µg/mL (≈ 616 µM). The LC50 [4] was 11 µg/mL (≈ 27.1 µM), the LC50 [5] was 110 µg/mL (≈ 271 µM) and the LD50 (in vivo; [6]) was over 640 mg/kg. For the same compound, the LD50 (in vivo; [7]) was 640 mg/kg, the “mammalian toxicity (in words)” value (rat) was “very low level of mammalian toxicity” and the “phytotoxicity (in words)” value (important economic crops) was “extremely low phytotoxicity”.

Compound `CNC(=O)Oc1ccccc1OC(C)C` [Compound 5, 2-Isopropoxy-(N-methyl-carbamoyloxy)benzene] has an LC50 [1, 8] of 16 µg/mL (≈ 76.5 µM), an LC50 [2, 9] of over 500 µg/mL and an LC50 [3, 10] of 500 µg/mL (≈ 2390 µM). For the same compound, the LC50 [4, 10] was 12 µg/mL (≈ 57.3 µM), the LC50 [5, 11] was 16 µg/mL (≈ 76.5 µM) and the LD50 (in vivo; [6]) was 95 to 104 mg/kg. It also gave an LD50 (in vivo; [7]) of 95 to 104 mg/kg.

In the case of `CN(SSc1ccc(C(C)(C)C)cc1)C(=O)Oc1cccc2c1OC(C)(C)C2` [Compound 3, 2,2-Dimethyl-2,3-dihydro-7-[N-methyl-N-(4-tert-butylphenylthiosulfenyl)carbamoyloxy] benzofuran], the LC50 ([1]; 24 h) was 3 µg/mL (≈ 7.18 µM), the “insecticidal activity against aphid (in words)” value ([1]; in vivo) was “exceptionally high level of insecticidal activity” and the LC50 [2] was over 500 µg/mL. For the same compound, the LC50 [3] was 40 µg/mL (≈ 95.8 µM), the “insecticidal activity against south armyworm (in words)” value ([3]; in vivo) was “exceptionally high level of insecticidal activity” and the LC50 [4] was 5 µg/mL (≈ 12 µM). The “insecticidal activity against bean beetle (in words)” value ([4]; in vivo) was “exceptionally high level of insecticidal activity”, the LC50 [5] was under 17 µg/mL and the LD50 (in vivo; [6]) was 453 mg/kg. The LD50 (in vivo; [7]) was 453 mg/kg, the “times less toxic to mammals than parent compound (compound 1)” value (rat; rat LD50 ratio vs compound 1) was “at least 38 times” and the “times less toxic to mammals than 4-methylphenylthiosulfenyl derivative (compound 2)” value (rat; rat LD50 ratio vs compound 2) was “at least 23 times”. The “mammalian toxicity (in words)” value (rat) was “extremely low mammalian toxicity” and the “phytotoxicity (in words)” value (important economic crops) was “low phytotoxicity”.
